Assay results: US12448369B2 (Edgewise Therapeutics, Inc., priority 2023, dated 2025)

Key:
[1] = molecular target: T1, Porcine ventricle myofibrils (ventricular myosin ATPase) (Sus scrofa, UniProt P79293); assay: Myofibril ATPase assay, porcine ventricle myofibrils; format: biochemical, porcine (Yucatan minipigs); conditions: porcine ventricle myofibrils; Y75 value
T1 construct: Myofibrils from porcine cardiac muscle was isolated from the left ventricle of Yucatan minipigs; tissue Exemplar Genetics; host or cells: left ventricle of Yucatan minipigs, myofibrils prepared in house
Procedure, shortened: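 In a coupled enzyme format, ADP from myofibril ATPase drives NADH oxidation, monitored kinetically at 340 nm for 75 min using minipig ventricle myofibrils. Effective concentrations giving 25% loss or gain of activity relative to vehicle were calculated from 4-parameter fits.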

[2] = system: Rabbit Psoas myofibrils (skeletal myosin ATPase); assay: Myofibril ATPase assay, rabbit psoas (skeletal) myofibrils; format: biochemical; conditions: rabbit psoas myofibrils; Y75 value
Procedure, shortened: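 Values derive from concentration–response fits of NADH consumption rates at 340 nm, normalized to vehicle-only wells, as Y75 or Y125. Myofibril ATP turnover was linked to NADH via PK/LDH in Ca/EGTA-buffered PIPES, pH 7.0, and read over 75 min.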

[3] = system: Porcine atria myofibrils (atrial myosin ATPase); assay: Myofibril ATPase assay, porcine atria myofibrils; format: biochemical; conditions: porcine atria myofibrils; Y75 value (75% activity relative to no compound)
Procedure, shortened: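 Atrial myofibril ATPase measured by NADH-coupled absorbance at 340 nm; vehicle-normalized slopes fitted to give Y75 or Y125 values.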

T1 sequence (P79293 whole entry): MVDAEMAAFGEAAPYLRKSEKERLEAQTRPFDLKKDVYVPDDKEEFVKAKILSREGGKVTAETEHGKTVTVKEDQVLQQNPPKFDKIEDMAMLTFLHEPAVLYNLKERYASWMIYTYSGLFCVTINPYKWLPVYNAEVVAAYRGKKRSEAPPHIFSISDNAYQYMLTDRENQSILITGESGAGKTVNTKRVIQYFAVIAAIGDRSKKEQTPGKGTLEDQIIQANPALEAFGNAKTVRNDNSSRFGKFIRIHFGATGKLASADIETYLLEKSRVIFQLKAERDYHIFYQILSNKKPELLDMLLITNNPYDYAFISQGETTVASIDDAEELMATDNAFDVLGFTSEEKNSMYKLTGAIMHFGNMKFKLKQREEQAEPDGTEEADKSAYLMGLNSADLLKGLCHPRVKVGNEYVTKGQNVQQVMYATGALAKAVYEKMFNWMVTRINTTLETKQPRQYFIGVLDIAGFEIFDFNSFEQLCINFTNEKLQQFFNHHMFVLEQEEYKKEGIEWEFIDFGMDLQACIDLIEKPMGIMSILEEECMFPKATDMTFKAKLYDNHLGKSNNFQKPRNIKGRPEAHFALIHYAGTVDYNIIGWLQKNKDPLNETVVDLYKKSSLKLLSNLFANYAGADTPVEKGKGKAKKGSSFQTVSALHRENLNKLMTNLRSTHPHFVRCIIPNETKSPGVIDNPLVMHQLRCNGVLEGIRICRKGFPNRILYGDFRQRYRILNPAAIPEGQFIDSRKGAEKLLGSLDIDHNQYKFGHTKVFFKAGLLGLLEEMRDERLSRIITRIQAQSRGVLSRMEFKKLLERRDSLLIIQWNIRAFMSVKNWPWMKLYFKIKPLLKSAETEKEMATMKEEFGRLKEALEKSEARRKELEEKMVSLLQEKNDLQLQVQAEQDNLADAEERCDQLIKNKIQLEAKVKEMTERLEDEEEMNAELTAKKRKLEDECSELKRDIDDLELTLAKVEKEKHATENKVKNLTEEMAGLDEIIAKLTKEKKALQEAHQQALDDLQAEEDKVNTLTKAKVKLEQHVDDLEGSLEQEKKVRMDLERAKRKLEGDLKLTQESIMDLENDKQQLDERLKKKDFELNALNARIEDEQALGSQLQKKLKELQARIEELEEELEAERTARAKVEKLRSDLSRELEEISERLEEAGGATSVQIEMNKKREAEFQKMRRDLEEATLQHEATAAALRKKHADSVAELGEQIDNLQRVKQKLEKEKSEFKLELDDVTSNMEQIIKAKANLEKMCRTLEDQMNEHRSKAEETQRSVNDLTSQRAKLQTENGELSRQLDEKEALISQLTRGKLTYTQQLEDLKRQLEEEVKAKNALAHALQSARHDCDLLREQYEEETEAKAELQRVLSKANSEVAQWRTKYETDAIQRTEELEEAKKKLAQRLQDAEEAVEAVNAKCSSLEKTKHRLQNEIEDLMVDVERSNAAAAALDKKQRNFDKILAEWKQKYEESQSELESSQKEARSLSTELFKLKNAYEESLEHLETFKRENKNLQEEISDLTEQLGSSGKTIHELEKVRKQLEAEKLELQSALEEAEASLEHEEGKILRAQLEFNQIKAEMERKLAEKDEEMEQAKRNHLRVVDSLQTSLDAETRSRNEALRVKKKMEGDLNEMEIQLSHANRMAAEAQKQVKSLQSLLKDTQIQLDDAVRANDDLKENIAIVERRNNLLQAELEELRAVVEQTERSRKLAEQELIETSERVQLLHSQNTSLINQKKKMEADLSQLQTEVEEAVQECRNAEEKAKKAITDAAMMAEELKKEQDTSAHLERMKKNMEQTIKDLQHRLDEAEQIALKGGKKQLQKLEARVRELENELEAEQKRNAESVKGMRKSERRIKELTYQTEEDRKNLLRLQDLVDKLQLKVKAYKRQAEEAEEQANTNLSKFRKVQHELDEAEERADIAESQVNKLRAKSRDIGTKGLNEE

Row | Structure (SMILES) | Ventricular EC25 [1] [µM] | Skeletal EC25 [2] [µM] | Atrial EC25 [3] [µM]
1 | Cc1cccc([C@@H](C)NC(=O)Cc2c(C)c3c(C)nccc3[nH]c2=O)c1 (single isomer, unassigned) [compound 339] | 100.00 | 100.00 | 100.00
2 | Cc1cccc([C@H](C)NC(=O)Cc2c(C)c3c(C)nccc3[nH]c2=O)c1 (single isomer, unassigned) [compound 340] | 100.00 | 100.00 | 36.97
3 | Cc1nccc2[nH]c(=O)c(CC(=O)N[C@H](CCO)c3ccc(F)cc3F)c(C)c12 (single isomer, unassigned) [compound 341] | 100.00 | 100.00 | 100.00
4 | C[C@H](NC(=O)[C@@H](C)c1cc2c(Br)nccc2[nH]c1=O)c1ccc(F)cc1F (single isomer, unassigned) [compound 344] | 90.74 | 0.23 | 9.52
5 | Cc1c([C@@H](C)C(=O)N[C@@H](C)c2ccc(F)cc2F)c(=O)[nH]c2ccnc(OC(F)(F)F)c12 (single isomer, unassigned) [compound 347] | 20.36 | 0.35 | 0.94
6 | Cc1c([C@@H](Cc2ccccc2)C(=O)N[C@@H](C)c2ccc(F)cc2F)c(=O)[nH]c2ccnc(F)c12 (single isomer, unassigned) [compound 358] | 54.71 | 100.00 | 23.89
7 | C[C@H](NC(=O)[C@H](C)c1cc2c(C#N)nccc2[nH]c1=O)c1ccc(F)cc1F (single isomer, unassigned) [compound 360] | 100.00 | 0.05 | 100.00
8 | Cc1c([C@@H](C)C(=O)N[C@@H](C)c2ccc(F)cc2F)c(=O)[nH]c2ccnc(Cl)c12 (single isomer, unassigned) [compound 365] | 0.92 | 0.03 | 0.18
9 | Cc1c([C@H](C)C(=O)N[C@@H](C)c2ccc(F)cc2F)c(=O)[nH]c2ccnc(Cl)c12 (single isomer, unassigned) [compound 366] | 1.48 | 0.04 | 0.14
10 | Cc1c([C@@H](C)C(=O)N[C@@H](C)c2ccc(F)cc2F)c(=O)[nH]c2ccc(C(F)(F)F)nc12 (single isomer, unassigned) [compound 370] | 48.16 | 0.51 | 0.06
11 | Cc1c([C@@H](C)C(=O)N[C@@H](C)c2ccc(F)cc2F)c(=O)[nH]c2ccnc(F)c12 (single isomer, unassigned) [compound 376] | 1.33 | 0.03 | 0.16
12 | Cc1nccc2[nH]c(=O)c(CC(=O)N[C@@H](C)c3ncc(F)cc3F)c(C)c12 (single isomer, unassigned) [compound 379] | 5.81 | 0.36 | 2.36
13 | Cc1nccc2[nH]c(=O)c(CC(=O)N[C@@H](CO)c3ccc(F)cc3F)c(C)c12 (single isomer, unassigned) [compound 396] | 3.32 | 0.55 | 1.18
14 | Cc1nccc2[nH]c(=O)c([C@H](C)C(=O)N[C@@H](C)c3ccc(F)cc3F)c(C)c12 (single isomer, unassigned) [compound 398] | 59.63 | 0.23 | 2.73
15 | Cc1cc(F)cc(F)c1[C@H](C)NC(=O)Cc1c(C)c2c(C)nccc2[nH]c1=O (single isomer, unassigned) [compound 403] | 2.08 | 0.19 | 40.23
16 | Cc1nccc2[nH]c(=O)c([C@@H](C)C(=O)N[C@@H](C)c3ccc(F)cc3F)c(C(F)(F)F)c12 (single isomer, unassigned) [compound 410] | 100.00 | 0.76 | 5.46
17 | CCOc1nccc2[nH]c(=O)c([C@H](C)C(=O)N[C@@H](C)c3ccc(F)cc3F)c(C(F)(F)F)c12 (single isomer, unassigned) [compound 415] | 12.58 | 0.13 | 2.22
18 | CCOc1nccc2[nH]c(=O)c([C@@H](C)C(=O)N[C@@H](C)c3ccc(F)cc3F)c(C(F)(F)F)c12 (single isomer, unassigned) [compound 416] | 100.00 | 0.46 | 100.00

The remaining lines, values ahead:

Row | Ventricular EC25 [1] [µM] | Skeletal EC25 [2] [µM] | Atrial EC25 [3] [µM] | Structure (SMILES)
19 | 100.00 | 27.39 | 8.69 | Cc1ccccc1[C@H](CO)NC(=O)Cc1c(C)c2c(C)nccc2[nH]c1=O (single isomer, unassigned) [compound 338]
20 | 52.00 | 11.14 | 3.65 | Cc1nccc2[nH]c(=O)c(CC(=O)N[C@@H](CCO)c3ccc(F)cc3F)c(C)c12 (single isomer, unassigned) [compound 342]
21 | 6.44 | 0.51 | 0.34 | Cc1c([C@H](C)C(=O)N[C@@H](C)c2ccc(F)cc2F)c(=O)[nH]c2ccnc(OC(F)(F)F)c12 (single isomer, unassigned) [compound 348]
22 | 100.00 | 157.50 | 100.00 | C[C@H](NC(=O)[C@@H](C)c1cc2c(C3CC3)nccc2[nH]c1=O)c1ccc(F)cc1F (single isomer, unassigned) [compound 356]
23 | 3.68 | 0.03 | 1.29 | C[C@H](NC(=O)[C@@H](C)c1cc2c(C#N)nccc2[nH]c1=O)c1ccc(F)cc1F (single isomer, unassigned) [compound 361]
24 | 4.71 | 0.44 | 1.16 | C[C@H](NC(=O)[C@@H](C)c1cc2nc(F)ccc2[nH]c1=O)c1ccc(F)cc1F (single isomer, unassigned) [compound 364]
25 | 36.08 | 0.29 | 2.23 | C[C@H](NC(=O)[C@@H](C)c1cc2c(F)nccc2[nH]c1=O)c1ccc(F)cc1F (single isomer, unassigned) [compound 367]
26 | 43.64 | 0.43 | 1.66 | C[C@H](NC(=O)[C@H](C)c1cc2c(F)nccc2[nH]c1=O)c1ccc(F)cc1F (single isomer, unassigned) [compound 368]
27 | 60.83 | 15.36 | 0.29 | Cc1c([C@H](C)C(=O)N[C@@H](C)c2ccc(F)cc2F)c(=O)[nH]c2ccc(C(F)(F)F)nc12 (single isomer, unassigned) [compound 369]
28 | 4.58 | 0.17 | 0.27 | Cc1c([C@H](C)C(=O)N[C@@H](C)c2ccc(F)cc2F)c(=O)[nH]c2ccnc(F)c12 (single isomer, unassigned) [compound 375]
29 | 100.00 | 3.18 | 100.00 | Cc1nccc2[nH]c(=O)c(CC(=O)N[C@H](C)c3ncc(F)cc3F)c(C)c12 (single isomer, unassigned) [compound 378]
30 | 18.33 | 0.30 | 0.91 | Cc1nccc2[nH]c(=O)c([C@@H](C)C(=O)N[C@@H](C)c3ccc(F)cc3F)c(C)c12 (single isomer, unassigned) [compound 399]
31 | 42.84 | 0.35 | 100.00 | Cc1cc(F)cc(F)c1[C@@H](C)NC(=O)Cc1c(C)c2c(C)nccc2[nH]c1=O (single isomer, unassigned) [compound 404]
32 | 100.00 | 10.76 | 20.63 | Cc1nccc2[nH]c(=O)c([C@H](C)C(=O)N[C@@H](C)c3ccc(F)cc3F)c(C(F)(F)F)c12 (single isomer, unassigned) [compound 413]
33 | 17.24 | 4.49 | 1.91 | COc1nccc2[nH]c(=O)c([C@H](C)C(=O)N[C@@H](C)c3ccc(F)cc3F)c(C(F)(F)F)c12 (single isomer, unassigned) [compound 424]
34 | 100.00 | 1.31 | 94.54 | COc1nccc2[nH]c(=O)c([C@@H](C)C(=O)N[C@@H](C)c3ccc(F)cc3F)c(C(F)(F)F)c12 (single isomer, unassigned) [compound 425]
35 | 66.84 | 12.74 | 4.84 | C[C@H](NC(=O)[C@@H](C)c1c(C(F)(F)F)c2cnccc2[nH]c1=O)c1ccc(F)cc1F (single isomer, unassigned) [compound 426]
